Experimental data as given in patent US20160115141A1, “CARBOXYLIC ACID DERIVATIVES FOR TREATMENT OF OXIDATIVE STRESS DISORDERS” (EDISON PHARMACEUTICALS, INC., priority 2013, published 2016).

system: FRDA fibroblasts stressed by addition of L-buthionine-(S,R)-sulfoximine (BSO); assay: Rescue of BSO-stressed human dermal fibroblasts from Friedreich's Ataxia patients (Calcein AM viability); format: cell-based; settings: FRDA fibroblasts GM04078, 1 mM BSO, 48 h, average, compounds of the invention
Protocol: An initial screen was performed to identify compounds effective for the amelioration of redox disorders. Test samples, 4 reference compounds (idebenone, decylubiquinone, Trolox and alpha-tocopherol), and solvent controls were tested for their ability to rescue FRDA fibroblasts stressed by addition of L-buthionine-(S,R)-sulfoximine (BSO), as described in Jauslin et al., Hum. Mol. Genet. 11(24):3055 (2002), Jauslin et al., FASEB J. 17:1972-4 (2003), and International Patent Application WO 2004/003565. […] This specific BSO-mediated cell death can be prevented by administration of antioxidants or molecules involved in the antioxidant pathway, such as alpha-tocopherol, selenium, or small molecule glutathione peroxidase mimetics. However, antioxidants differ in their potency, i.e. the concentration at which they are able to rescue BSO-stressed FRDA fibroblasts.
MEM (a medium enriched in amino acids and vitamins, catalog no. 1-31F24-I) and Medium 199 (M199, catalog no. 1-21F22-I) with Earle's Balanced Salts, without phenol red, were purchased from Bioconcept. Fetal Calf Serum was obtained from PAA Laboratories. Basic fibroblast growth factor and epidermal growth factor were purchased from PeproTech. Penicillin-streptomycin-glutamine mix, L-buthionine (S,R)-sulfoximine, (+)-alpha-tocopherol, decylubiquinone, and insulin from bovine pancreas were purchased from Sigma. Trolox (6-Hydroxy-2,5,7,8-tetramethylchromane-2-carboxylic acid) was obtained from Fluka. Idebenone was obtained from Chemo Iberica. Calcein AM was purchased from Anaspec. Cell culture medium was made by combining 125 ml M199 EBS, 50 ml Fetal Calf Serum, 100 U/ml penicillin, 100 microgram/ml streptomycin, 2 mM glutamine, 10 microgram/ml insulin, 10 ng/ml EGF, and 10 ng/ml bFGF; MEM EBS was added to make the volume up to 500 ml. A 10 mM BSO solution was prepared by dissolving 444 mg BSO in 200 ml of medium (Invitrogen, Carlsbad, Ca.) with subsequent filter-sterilization. During the course of the experiments, this solution was stored at +4° C. […]

Q: For `CCOC(=O)CCC(C)(O)CCC1=C(C)C(=O)C(C)=C(C)C1=O` (stereo not drawn), which EC50 is on record?
A: The EC50 was 275 nM.

Q: Which EC50 does the source give for `CC1=C(C)C(=O)C(CCC2(C)CCC(=O)O2)=C(C)C1=O` (stereo not drawn) here?
A: The EC50 was 270 nM.

Q: How did the EC50 turn out when `CC1=C(C)C(=O)C(CCC(C)(O)CCC(N)=O)=C(C)C1=O` (stereo not drawn) was run?
A: Its EC50 is 70 nM.
